Assays:
[1] = test system: HCT 116 (colon), NCIH460 (lung) and U251 (glioma) cell lines; experiment: Anti-cancer screen (MTT growth inhibition, 48 hours); type: cell-based; conditions: Homo sapiens; HCT 116, NCIH460 and U251 cell lines; MTT after 48 hours of incubation;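 note: mean GI50 across the three cell lines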
Experimental: The experimental drugs were screened for anti-cancer activity in three cell lines using five concentrations for each compound. The cell lines—HCT 116 (colon), NCIH460 (lung) and U251 (glioma) were maintained in DMEM containing 10% fetal bovine serum. 96-well microtiter plates are inoculated with cells in 100 μL of cell suspension (5×10^4 cells/mL) for 24 hours at 37° C., 5% CO2, 95% air and 100% relative humidity. A separate plate with these cell lines is also inoculated to determine cell viability before the addition of the compounds (T0)
Following 24-hour incubation, test compounds were added to the 96 well plates. Each plate contains one of the above cell lines and the following samples in triplicate: five different dilutions (0.01, 0.1, 1, 10 and 100 μM) of four test compounds, appropriate dilutions of a cytotoxic standard and growth medium (untreated) wells. Test compounds were dissolved in DMSO to prepare 20 mM stock solutions on the day of drug addition and serial dilutions were carried out in complete growth medium at 2× strength, such that 100 μL added to the wells gave final concentrations (0.01, 0.1, 1, 10 and 100 μM) in the well. SAHA was used as the standard drug in these experiments.
For T0 measurement, 24 hours after seeding the cells, 20 μL of 3-(4,5-dimethyl-2-thiazolyl)-2,5-diphenyl-2H-tetrazolium (MTT) solution per well was added to the ‘T0’ plate and incubated for 3 hours at 37° C. in a CO2 incubator. The plate containing cells and test compounds was treated similarly after 48 hours of incubation. After 3 hours of MTT addition, well contents were aspirated carefully followed by addition of 150 μL DMSO per well. Plates were agitated to ensure dissolution of the formazan crystals in DMSO and absorbance was read at 570 nm (A570).
Percent growth (PG) is calculated relative to the control and zero measurement wells (T0) as follows:
PG values are plotted against drug concentration to derive the following: GI50 is the concentration required to decrease PG by 50% vs control; TGI is the concentration required to decrease PG by 100% vs control and LC50 is the concentration required to decrease PG by 50% vs T0. (Mosmann T. Rapid colorimetric assay for cellular growth and survival: application to proliferation and cytotoxicity assays. (J. Immunol. Methods. 1983, 65 (1-2), 55-63; Anne Monks et al); feasibility of high-flux anticancer drug screen using a diverse panel of cultured human tumor cell lines”. (JNCI, Vol. 83, No. 11, 1991). Results for growth inhibition of synthesized compounds are given in Table-1.

[2] = test system: IL-6 in supernatant of NCIH 460 cells; experiment: Measuring IL-6 in culture supernatants (ELISA); type: cell-based; conditions: Homo sapiens, NCI-H460, 5 hours incubation

SMILES: COC(=O)/C(=C/c1cc(OC)cc(OC)c1)c1ccc(OCC(O)CNCc2ccc(OC)cc2OC)cc1 (stereo not drawn) [Example 3, 2-{4-[3-(2,4-Dimethoxybenzylamino)-2-hydroxypropoxyl]phenyl}-3-(3,5-dimethoxyphenyl)acrylic acid methyl ester]
- GI50 [1]: 4.1 µM
- inhibition at 10 µM [2]: 67%

SMILES: COC(=O)/C(=C/c1cc(OC)cc(OC)c1)c1ccc(OCC(O)CNCc2ccc(OC(F)(F)F)cc2)cc1 (stereo not drawn) [Example 4]
- GI50 [1]: 32.4 µM

SMILES: COC(=O)/C(=C/c1cc(OC)cc(OC)c1)c1ccc(OCC(O)CNCCOc2ccccc2OC)cc1 (stereo not drawn) [Example 5, 2-{4-[3-(2-Methoxyphenoxyethylamino)-2-hydroxypropoxyl]phenyl}-3-(3,5-dimethoxyphenyl)acrylic acid methyl ester]
- GI50 [1]: 3.1 µM
- inhibition at 10 µM [2]: 37%

SMILES: COC(=O)/C(=C/c1cc(OC)c(OC)c(OC)c1)c1ccc(OCC(O)CNCc2ccc(OC)cc2OC)cc1 (stereo not drawn) [Example 6, 2-{4-[3-(2,4-Dimethoxybenzylamino)-2-hydroxypropoxyl]phenyl}-3-(3,4,5-trimethoxyphenyl)acrylic acid methyl ester]
- GI50 [1]: 5.2 µM
- inhibition at 10 µM [2]: 73%

SMILES: COC(=O)/C(=C/c1ccc(F)c(OC)c1)c1ccc(OCC(O)CNCCOc2ccccc2OC)cc1 (stereo not drawn) [Example 7, 2-{4-[3-(2-Methoxyphenoxyethylamino)-2-hydroxypropoxyl]phenyl}-3-(4-fluoro-3-methoxyphenyl)acrylic acid methyl ester]
- GI50 [1]: 2.2 µM
- inhibition at 10 µM [2]: 58%

SMILES: COC(=O)/C(=C/c1cc(OC)c(OC)c(OC)c1)c1ccc(OCC(O)CNCc2ccc(OC(F)F)cc2)cc1 (stereo not drawn) [Example 8, 2-{4-[3-(4-Difluoromethoxybenzylamino)-2-hydroxypropoxyl]phenyl}-3-(3,4,5-trimethoxyphenyl)acrylic acid methyl ester]
- GI50 [1]: 3.6 µM
- inhibition at 10 µM [2]: 44%

SMILES: COC(=O)/C(=C/c1ccc(F)c(OC)c1)c1ccc(OCC(O)CNCc2ccc(OC)cc2OC)cc1 (stereo not drawn) [Example 9, 2-{4-[3-(2,4-Dimethoxybenzylamino)-2-hydroxypropoxyl]phenyl}-3-(4-fluoro-3-methoxyphenyl)acrylic acid methyl ester]
- GI50 [1]: > 100 µM
- inhibition at 10 µM [2]: 34%

SMILES: COC(=O)/C(=C/c1ccc(OCC(O)CNCc2ccc(F)cc2)cc1)c1ccccc1 (stereo not drawn) [Example 10, 3-{4-[3-(4-Fluorobenzylamino)-2-hydroxypropoxyl]phenyl}-2-phenylacrylic acid methyl ester]
- GI50 [1]: 35.3 µM
- inhibition at 10 µM [2]: 4.5%

SMILES: COC(=O)/C(=C/c1cc(OC)c(OC)c(OC)c1)c1ccc(OCC(O)CNCCOc2ccccc2OC)cc1 (stereo not drawn) [Example 11, 2-{4-[3-(2-Methoxyphenoxyethylamino)-2-hydroxypropoxyl]phenyl}-3-(3,4,5-trimethoxyphenyl)acrylic acid methyl ester]
- GI50 [1]: 37.3 µM
- inhibition at 10 µM [2]: 29%

SMILES: COC(=O)/C(=C/c1ccc(OCC(O)CNCc2ccc(OC)cc2OC)cc1)c1ccc(OC)cc1 (stereo not drawn) [Example 12, 3-{4-[3-(2,4-Dimethoxybenzylamino)-2-hydroxypropoxyl]phenyl}-2-(4-methoxyphenyl)acrylic acid methyl ester]
- GI50 [1]: 3 µM
- inhibition at 10 µM [2]: 55%

SMILES: COC(=O)/C(=C/c1ccc(OC)c(OC)c1)c1ccc(OCC(O)CNCc2ccc(OC)cc2OC)cc1 (stereo not drawn) [Example 13, 2-{4-[3-(2,4-Dimethoxybenzylamino)-2-hydroxypropoxyl]phenyl}-3-(3,4,-dimethoxyphenyl)acrylic acid methyl ester]
- GI50 [1]: 3.5 µM
- inhibition at 10 µM [2]: 67%

SMILES: COC(=O)/C(=C/c1ccc(OC)c(OC)c1)c1ccc(OCC(O)CNCCOc2ccccc2OC)cc1 (stereo not drawn) [Example 14, 2-{4-[3-(2-Methoxyphenoxyethylamino)-2-hydroxypropoxyl]phenyl}-3-(3,4,-dimethoxyphenyl)acrylic acid methyl ester]
- GI50 [1]: 4 µM
- inhibition at 10 µM [2]: 38%

SMILES: COC(=O)/C(=C/c1ccc(F)c(F)c1)c1ccc(OCC(O)CNCc2ccc(OC)cc2OC)cc1 (stereo not drawn) [Example 15, 2-{4-[3-(2,4-Dimethoxybenzylamino)-2-hydroxypropoxyl]phenyl}-3-(3,4-difluorophenyl)acrylic acid methyl ester]
- GI50 [1]: 2.8 µM
- inhibition at 10 µM [2]: 44%

SMILES: COC(=O)/C(=C/c1ccc(OCC(O)CNCc2ccc(OC)cc2OC)cc1)c1ccccc1 (stereo not drawn) [Example 16, 3-{4-[3-(2,4-Dimethoxybenzylamino)-2-hydroxypropoxyl]phenyl}-2-phenyl acrylic acid methyl ester]
- GI50 [1]: 3.1 µM
- inhibition at 10 µM [2]: 68%

SMILES: COC(=O)/C(=C/c1ccccc1)c1ccc(OCC(O)CNCc2ccc(OC)cc2OC)cc1 (stereo not drawn) [Example 17, 2-{4-[3-(2,4-Dimethoxybenzylamino)-2-hydroxypropoxy]phenyl}-3-phenylacrylic acid methyl ester]
- GI50 [1]: 3.4 µM
- inhibition at 10 µM [2]: 25%

SMILES: COC(=O)/C(=C/c1cc(OC)cc(OC)c1)c1ccc(OCC(O)CNCc2ccccc2)cc1 (stereo not drawn) [Example 18, 2-{4-[3-(Benzylamino)-2-hydroxypropoxy]phenyl}-3-(3,5-dimethoxyphenyl)acrylic acid methyl ester]
- GI50 [1]: 5.3 µM
- inhibition at 10 µM [2]: 25%

SMILES: COC(=O)/C(=C/c1ccc(F)c(C)c1)c1ccc(OCC(O)CNCCOc2ccccc2OC)cc1 (stereo not drawn) [Example 19, 2-{4-[3-(2-Methoxyphenoxyethylamino)-2-hydroxypropoxy]phenyl}-3-(4-fluoro-3-methylphenyl)acrylic acid methyl ester]
- GI50 [1]: 4.9 µM
- inhibition at 10 µM [2]: 15.9%

SMILES: COC(=O)/C(=C/c1cc(OC)cc(OC)c1)c1ccc(OCC(O)CNCc2ccc(F)cc2)cc1 (stereo not drawn) [Example 20, 2-{4-[3-(4-Fluorobenzylamino)-2-hydroxypropoxy]phenyl}-3-(3,5-dimethoxyphenyl)acrylic acid methyl ester]
- GI50 [1]: 16.8 µM
- inhibition at 10 µM [2]: 0%

SMILES: COC(=O)/C(=C/c1ccc(F)c(C)c1)c1ccc(OCC(O)CNCc2ccccc2)cc1 (stereo not drawn) [Example 21, 2-{4-[3-(Benzylamino)-2-hydroxypropoxy]phenyl}-3-(4-fluoro-3-methylphenyl)acrylic acid methyl ester]
- GI50 [1]: 13.1 µM
- inhibition at 10 µM [2]: 22.8%

SMILES: COC(=O)/C(=C/c1ccc(Cl)cc1)c1ccc(OCC(O)CNCc2ccc(OC)cc2OC)cc1 (stereo not drawn) [Example 22, 2-{4-[3-(2,4-Dimethoxybenzylamino)-2-hydroxypropoxy]phenyl}-3-(4-chlorophenyl)acrylic acid methyl ester]
- GI50 [1]: 16.1 µM
- inhibition at 10 µM [2]: 59.8%

SMILES: COC(=O)/C(=C/c1ccc(SC)cc1)c1ccc(OCC(O)CNCCOc2ccccc2OC)cc1 (stereo not drawn) [Example 23, 2-{4-[3-(2-Methoxyphenoxy-ethylamino)-2-hydroxy-propoxy]-phenyl}-3-(4-(methylthio)phenyl)-acrylic acid methyl ester]
- GI50 [1]: 11.7 µM
- inhibition at 10 µM [2]: 54.2%

SMILES: COC(=O)/C(=C/c1ccccc1)c1ccc(OCC(O)CNCc2ccccc2)cc1 (stereo not drawn) [Example 24, 2-{4-[3-(Benzylamino)-2-hydroxypropoxy]phenyl}-3-phenylacrylic acid methyl ester]
- GI50 [1]: 15.5 µM
- inhibition at 10 µM [2]: 0%

SMILES: COC(=O)/C(=C/c1ccccc1)c1ccc(OCC(O)CNCCOc2ccccc2OC)cc1 (stereo not drawn) [Example 25, 2-{4-[3-(2-Methoxyphenoxyethylamino)-2-hydroxypropoxy]phenyl}-3-phenylacrylic acid methyl ester]
- GI50 [1]: 27.8 µM
- inhibition at 10 µM [2]: 20.5%

From patent US20100298402A1, “STILBENE DERIVATIVES AS PSTAT3/IL-6 INHIBITORS” (ORCHID RESEARCH LABORATORIES LIMITED, priority 2007, published 2010)
